According to paper PMC11587505, “Identification and In Vitro and In Vivo Characterization of KAC-50.1 as a Potential α-Synuclein PET Radioligand” (ACS Chemical Neuroscience, 2024):

Molecular target: T1, α-synuclein (recombinant fibrils) (Homo sapiens, UniProt P37840)
T1 construct: gene SNCA; recombinant human α-syn fibrils (pET-3a construct)
Assay: radioligand saturation binding (filtration) on recombinant fibrils

Kd: 35 nM
Compound: COc1ccc(/C=C/c2cn(-c3ccccc3)nn2)cc1 [50.1, KAC-50.1]
